Experimental data published in article PMC5118696, “Identification of inhibitors that dually target the new permeability pathway and dihydroorotate dehydrogenase in the blood stage of Plasmodium falciparum” (Scientific Reports, 2016).
Read-outs that look alike come from different tables or passages of the source.

Experiments:
[1] = tested on: Hyp1-NLuc Plasmodium falciparum-infected erythrocytes (new permeability pathway, NPP); test: microbe, parasite or virus in culture; settings: Erythrocyte, 0.33 h, read-out: Mean RLU at 28 min (As % of DMSO control)
[2] = tested on: Hyp1-NLuc Plasmodium falciparum-infected erythrocytes (new permeability pathway, NPP); test: microbe, parasite or virus in culture; settings: Erythrocyte, 0.33 h, read-out: % of control remaining

Row | Structure (SMILES) | activity at 2 µM [1] [%] | activity at 2 µM [2] [%]
1 | COc1ccc(-c2cn3c(C(=O)Nc4ccccc4Cl)c(-c4ccccc4)c4c3n2CCCC4)cc1 [MMV020403] | 103 | 106
2 | CC(O)(c1ccc(Cl)cc1)C(CN1CCCCC1)c1ccccc1 (stereo not shown) [MMV000620] | 100 | 114
3 | CCN1CCN(c2cc(C)c3cc(NC(=O)c4ccc(OC)c(OC)c4)ccc3n2)CC1 [MMV019074] | 104 | 118
4 | CCOC(=O)c1c(NC(=O)c2ccccc2)sc2c(O)c(CN(CC)CC)ccc12 [MMV665831] | 103 | 103
5 | CCCn1c(=N)c(C(=O)NC2CCCCC2)cc2c(=O)n3cccc(C)c3nc21 [MMV008829] | 106 | 105
6 | O=C1c2ccc3c4c(ccc(c24)C(=O)N1CCCCO)C(=O)N(CCCCO)C3=O [MMV009085] | 93.1 | 58.9
7 | Oc1c2c(nc3ccccc13)CCCC2 [MMV665843] | 109 | 111
8 | CCCCN(CCCC)S(=O)(=O)c1ccc(NC(=O)c2ccco2)cc1 [MMV007881] | 104 | 96.9
9 | COc1cc(-c2nc(-c3ccccc3)c(-c3ccccc3)[nH]2)cc(OC)c1O [MMV020750] | 102 | 109
10 | Nc1nc(Nc2cccc(F)c2)nc2ccccc12 [MMV080034] | 93.1 | 94.5
11 | c1ccc(CNc2nc(Nc3ccccc3)nc3ccccc23)cc1 [MMV006169] | 102 | 114
12 | CCOC(=O)c1cnc2ccc(OC)cc2c1NCc1ccccc1 [MMV665813] | 115 | 114
13 | COc1ccc(C2N(C)c3ccccc3N2C)cc1 [MMV666075] | 109 | 123
14 | COc1ccc(-c2cc(=O)oc3c4c(ccc23)OCN(Cc2ccc(F)cc2)C4)cc1 [MMV000604] | 104 | 106
15 | CCN(CC)CCCNc1nc(-c2ccc(Cl)cc2)nc2ccccc12 [MMV665961] | 103 | 101
16 | OC(CNCc1ccccc1)Cn1c2ccccc2c2ccccc21 (stereo not shown) [MMV000839] | 107 | 110
17 | CCN(Cc1ccccc1)C1CCN(Cc2cc(Br)ccc2O)CC1 [MMV019127] | 109 | 107
18 | c1ccc(C2=Nc3ccccc3N=C(c3ccccc3)c3ccccc32)cc1 [MMV007113] | 103 | 111
19 | Brc1ccc(Nc2nc3ccccc3nc2Nc2ccc(Br)cc2)cc1 [MMV007224] | 95.5 | 104
20 | CCOC(=O)c1cnc2c(CC)cccc2c1O [MMV498479] | 103 | 107
21 | Oc1ccc(Br)cc1CN1CCN(Cc2ccc(Cl)cc2)CC1 [MMV665809] | 93.3 | 91.7
22 | O=C(Nc1ccc(-c2nc3ccccc3[nH]2)cc1)c1ccc(Cl)c(Cl)c1 [MMV665840] | 109 | 107
23 | OC1=C2C(=Nc3ccccc3SC2c2ccc(Br)cc2)c2ccccc21 (stereo not shown) [MMV007127] | 108 | 114

Row | Structure (SMILES) | activity at 2 µM [1] [%] | activity at 2 µM [2] [%]
24 | CCN(CC)S(=O)(=O)c1ccc(-c2csc(Nc3ccc(C)c(C)c3)n2)cc1 [MMV009108] | 107 | 107
25 | Nc1ccc(-c2nc3cc(Oc4ccc(Oc5ccc6[nH]c(-c7ccc(N)cc7)nc6c5)cc4)ccc3[nH]2)cc1 [MMV011895] | 91.2 | 74.5
26 | O=C(NCC1Cc2cccc(-c3ccncc3)c2O1)c1csc2c1CCCC2 (stereo not shown) [MMV665954] | 104 | 117
27 | Cc1sc(NC(=O)c2ccccc2)c(C(c2cccs2)N2CCN(c3ccccc3)CC2)c1C (stereo not shown) [MMV396652] | 101 | 104
28 | COc1nc(Nc2ccc(C(C)C)cc2)nc(OC)n1 [MMV007808] | 110 | 110
29 | CCOc1ccccc1CNC(=O)C1c2ccccc2C(=O)N(CC(C)C)C1c1cccs1 (stereo not shown) [MMV000653] | 105 | 119
30 | Cn1c(=O)c2cc(C(=O)NCCCN3CCCCCC3)sc2c2ccccc21 [MMV019313] | 104 | 74.1
31 | Cc1ccc(NC(=O)Nc2cccc(Cl)c2)cc1F [MMV000911] | 115 | 114
32 | Oc1ccc(-c2nc(-c3ccc4oc5ccc(-c6[nH]c(-c7ccc(O)cc7)nc6-c6ccccc6)cc5c4c3)c(-c3ccccc3)[nH]2)cc1 [MMV000753] | 88.1 | 89.5
33 | COc1cccc(C(=O)Nc2ccc(-c3nc4ccccc4[nH]3)cc2)c1 [MMV019762] | 96.5 | 97.1
34 | CC1CCN(Cc2ccc(NC(=O)c3cc4ccc5cccnc5c4[nH]3)cc2)CC1 [MMV020549] | 102 | 90.5
35 | O=C(Nc1ccc(F)c(Cl)c1)Nc1ccc(Cl)c(Cl)c1 [MMV665953] | 108 | 125
36 | O=C(NC1CCN(Cc2ccccc2)CC1)c1cc(-c2ccncc2)nc2ccc(Cl)cc12 [MMV020275] | 115 | 115
37 | CCOc1ccc(Nc2ccnc3cc(Cl)ccc23)cc1 [MMV007285] | 107 | 102
38 | O=C(NC1CCN(Cc2ccccc2)CC1)c1cc2nc(-c3ccc(Cl)s3)cc(C(F)(F)F)n2n1 [MMV396635] | 101 | 101
39 | CC1CN(C(=O)c2sc3ccccc3c2Cl)CC(C)O1 (stereo not shown) [MMV020492] | 103 | 102
40 | COCCn1c(C)nc2ccccc2c1=O [MMV665904] | 110 | 112
41 | Cc1ccc(C2CC(C(F)(F)F)n3nc(C(=O)N4CCN(C(c5ccccc5)c5ccccc5)CC4)cc3N2)cc1 (stereo not shown) [MMV000699] | 101 | 100
42 | Cc1c(C)n(Cc2ccc(F)cc2)c2ccc(C(=O)NCc3ccco3)cc12 [MMV008149] | 102 | 118
43 | OC(CNCC1CCCO1)Cn1c2ccc(Cl)cc2c2cc(Cl)ccc21 (stereo not shown) [MMV396736] | 116 | 112
44 | CCCCCC(=O)N1c2ccccc2N=C2CC(c3ccc(OC)c(OC)c3)CC(O)=C2C1c1ccc(C(F)(F)F)cc1 (stereo not shown) [MMV085583] | 103 | 102
45 | COc1ccc(C=C2SC(Nc3ccccc3)=NC2=O)cc1 [MMV665836] | 86.5 | 55.9
46 | COc1ccc(C2=C(c3ccc(OC)cc3)C3(c4ccccc4)C(=O)C2(c2ccccc2)C2C(=O)N(c4ccc(C)cc4)C(=O)C23)cc1 (stereo not shown) [MMV666101] | 108 | 107

Row | Structure (SMILES) | activity at 2 µM [1] [%] | activity at 2 µM [2] [%]
47 | O=C1C2=C(Nc3ccccc3SC2c2ccccc2)c2ccccc21 (stereo not shown) [MMV645672] | 106 | 106
48 | Clc1cc(Br)ccc1-c1ccc(CNCC2CCNCC2)o1 [MMV019918] | 114 | 111
49 | CCCCCn1c(=N)n(CC(O)COc2cccc(C)c2)c2ccccc21 (stereo not shown) [MMV000444] | 95.8 | 99.2
50 | CC(C)(C)c1ccc(O)c(CNC2CCCCC2)c1 [MMV665785] | 103 | 104
51 | COc1cccc(C2(C)Nc3ccccc3-c3nc4ccccc4n32)c1 (stereo not shown) [MMV396719] | 105 | 105
52 | COc1ccc2c(c1OC)C(=O)N1c3ccccc3N=C(c3ccc(C)cc3)CC21 (stereo not shown) [MMV000917] | 90.9 | 94.9
53 | Cc1ccc(N2C(=O)C3C(C2=O)C2(c4ccccc4)C(=O)C3(c3ccccc3)C(c3ccccc3)=C2c2ccccc2)cc1 (stereo not shown) [MMV666062] | 106 | 97.6
54 | COc1ccc(C=C2SC(=N)N(c3ccccc3OC)C2=O)cc1 [MMV666691] | 61.9 | 26.4
55 | Cc1[nH]c(-c2ccc(F)cc2)cc1C(=O)NC1CCN(Cc2ccccc2)CC1 [MMV019738] | 109 | 95.2
56 | CNCCCNc1ccnc2cc(Cl)ccc12 [MMV020500] | 98.7 | 97.7
57 | Oc1ccccc1CN1CCC2(CCCN(Cc3ccccc3F)C2)C1 (stereo not shown) [MMV666116] | 100 | 106
58 | O=[N+]([O-])c1ccc(C=NNc2nc3ccccc3[nH]2)cc1 [MMV666607] | 103 | 102
59 | O=C(Nc1ccc(-c2nc3cc(NC(=O)c4ccc(Cl)cc4)ccc3[nH]2)cc1)c1ccc(Cl)cc1 [MMV006962] | 101 | 99.7
60 | CCOC(=O)C1=C(C)N=c2sc(=Cc3cc(Cl)ccc3O)c(=O)n2C1c1ccc(OC)cc1 (stereo not shown) [MMV665971] | 101 | 102
61 | COc1ccc(NC(=O)C2c3ccccc3C(=O)N(CC(C)C)C2c2cccs2)cc1 (stereo not shown) [MMV000662] | 85.9 | 85.7
62 | OC(Cn1nnc2ccccc21)Cn1c2ccc(Br)cc2c2cc(Br)ccc21 (stereo not shown) [MMV666025] | 99.5 | 105
63 | CCCCCCC(O)(c1ccc(F)cc1)C(CN1CCOCC1)c1ccccc1 (stereo not shown) [MMV000621] | 106 | 117
64 | CCOC(=O)c1cnc2ccc(Cl)cc2c1NCCCN(C)C [MMV006882] | 106 | 110
65 | CN1c2ccccc2N(C)C1c1ccc2c(c1)OCO2 [MMV666009] | 104 | 114
66 | Cc1ccc(-c2nc3ccccc3o2)cc1NCc1cc(Cc2ccccc2)ccc1O [MMV020912] | 99.2 | 94.7
67 | CC(C)c1ccc(CNCC(O)c2ccccc2)cc1 (stereo not shown) [MMV001049] | 113 | 116
68 | CSC1=NC(=Nc2c(C)cccc2C)C2(CCC(C(C)(C)C)CC2)N1c1ccc(Cl)cc1 (stereo not shown) [MMV666596] | 106 | 107
